Columns and labels:
[1] = tested on: luminescent patient derived GSC orthotopic xenograft; assay: Orthotopic xenograft of luminescent patient derived GSC, treatment from two weeks after injection; type: in vivo, nude mice
Method: FIG. 3: Nude mice were orthotopically xenografted by luminescent patient derived GSC. (A-B) Two weeks following injections, mice were intraperitoneally injected with 10 mg/kg (n=4), 7.5 mg/kg (n=4) or 5 mg/kg (n=4) of Compound 9a or vehicle alone as control (ctl n=10). A) graphical representation of the average of tumor growth in the control group (n=10) and in each Compound 9a treated groups. B) Survival of the whole population of mice of the untreated and treated groups were compared using a log rank test according to Kaplan Meier method. (R command, see World Wide Web: biostatgv.sentiweb.fr/?module=tests/surv). The solid line represents the survival rate of control untreated mice. The dotted line represents the survival rate of mice treated by compound 9a. C) Mice treatment with compound 9a when the tumors were already formed. Tumor growth representation in mice, treated either with DMSO (control: -♦-) or Compound 9a (-▪-). Tumor growth was controlled every week by live imaging. The solid line represents the tumor growth in control untreated mice. The dotted line represents the tumor growth in mice treated by compound 9a.
Nude mice were orthotopically xenografted by luminescent patient derived GSC. […]

[2] = tested on: human kidney (NHEK); assay: XTT toxicity assay on human kidney cells; type: cell-based
Method: (§1) FIG. 4: Determination of compound toxicity on GSC and normal human cells. (A) GB5 were incubated with growing concentration of Compounds 9a-b and 18a. (B) human normal neural stem cell (NNSC), human normal kidney cells (NHEK), human normal hepatocytes (HEPRG) and (C) human endothelial cells (HUVEC) were treated with growing concentration of Compound 9a. 7 days later, the cells were subjected to an XTT assays as described in the method section. The results are the meaning of at least two separate experiments. Cell death was confirmed by trypan blue staining (not shown).
HEK293 (human embryonic kidney cell) were grown in DMEM supplemented with glutamax and 10% foetal calf serum.
(§2) V—Toxicity tests: NNSC, GB5, TG6, HEK293, and HepaRG, HUVEC were seeded at 2000 cells/well in 96 wells plate in their respective culture mediums alone or containing growing concentration from 10 to 500 uM of Compounds 9a-b. Cultures were incubated 4 days and the cellular toxicity has been evaluated by XTT assays. Cell viability has been also assessed by counting living and dead cells with trypan blue staining.
XTT assays allows, through cell metabolism measurement, to determine a cytotoxic/cytostatic effects. Compounds 9a-b and 18a were tested for their eventual toxicity by XTT assays as described in the material and method section. […]

[3] = tested on: human endothelial cells (HUVEC); assay: XTT toxicity assay on human endothelial cells; type: cell-based
Method: as §1, §2
XTT assays allows, through cell metabolism measurement, to determine a cytotoxic/cytostatic effects. Compounds 9a-b and 18a were tested for their eventual toxicity by XTT assays as described in the material and method section. At the working concentrations 10 to 25 uM, the compounds are not toxic for GSC (FIG. 4A). […]

NCCCCNCCCNC(=O)c1csc(-c2csc(CCNC(=O)CCc3cn(CC4OC(OC5C(O)C(N)CC(N)C5OC5OC(CN)C(O)C(O)C5N)C(O)C4OC4OC(CN)C(O)C(O)C4N)nn3)n2)n1 (stereo not drawn) [Compound 9a, N-(3-((4-Aminobutyl)amino)propyl)-2′-(2-(3-(1-methyl-1H-1,2,3-triazol-4-yl)propanamido)ethyl)-[2,4′-bithiazole]-4-carboxamide-neomycin]
treated mice that developed a tumor ([1]; intraperitoneal 10, 7.5 or 5 mg/kg, three days a week, all control mice developed a tumor): two mice above twelve
tumor initiation and development ([1]; intraperitoneal at 10 mg/kg, 7.5 mg/kg and 5 mg/kg): prevented tumor initiation and development
toxicity (XTT) ([2]; 100 uM and above): toxic
toxicity (XTT) ([2]; between 10 to 50 uM): not toxic
toxicity (XTT) ([3]; 100 uM and above): toxic
toxicity (XTT) ([3]; between 10 to 50 uM): not toxic

Reference: US12508275B2, “Neomycin based compounds, and pharmaceutical use thereof” (UNIVERSITÉ COTE D'AZUR, priority 2019, dated 2025)
